We go through 1 molecule from patent publication EP2308883A1, “New derivatives of thieno[2,3-b]pyridine and 5,6,7,8 tetrahydrothieno[2,3 b]quinoline in particular useful in the treatment of malaria” (priority 2009, dated 2011).

Test [1] relates to panel of 22 purified kinases, including 4 P. falciparum kinases. Description: Small panel of 22 purified kinases. It counts as biochemical. The conditions noted are these: at concentrations up to 10 µM. The protocol: (§1) Compound No. 22 was also tested on a small panel of 22 purified kinases, including 4 P. falciparum kinases. […] To complement this selectivity study, compound No 22 was run on two large scale selectivity panels: Prof. P. Cohen's kinase selectivity panel (76 kinases) (Bain J, Plater L, Elliott M, Shapiro N, Hastie CJ, McLauchlan H et al. (2007). The selectivity of protein kinase inhibitors: a further update. Biochem J. 408: 297-315.) and the Ambit Biosciences interaction assay (402 kinases) (Karaman MW, Herrgard S, Treiber DK, Gallant P, Atteridge CE, Campbell BT, Chan KW, Ciceri P, Davis MI, Edeen PT, Faraoni R, Floyd M, Hunt JP, Lockhart DJ, Milanov ZV, Morrison MJ, Pallares G, Patel HK, Pritchard S, Wodicka LM, Zarrinkar PP. A quantitative analysis of kinase inhibitor selectivity. Nat Biotechnol. 2008 Jan;26(1):127-32.).

The subject of the next test is mammalian kinases. The conditions noted are these: compared with roscovitine and staurosporine. The protocol: as §1

The structures appear in SMILES notation.

With `N#Cc1c(N)nc2sc(C(=O)c3cccc(Cl)c3)c(N)c2c1-c1ccccc1Cl` [Compound 22, 3,6-diamino-2-(3-chlorobenzoyl)-4-(2-chlorophenyl)thieno[2,3-b]pyridine-5-carbonitrile], in test [1], the “inhibition of kinases of the panel besides PfGSK-3” value is reported as “no kinase was found to be inhibited”. Also, the “inhibition of mammalian kinases in selectivity panels” value in the test on mammalian kinases is given as “very poor, if at all, inhibitor of mammalian kinases”.
